{"source": "patent US20070043115A1", "about": "“Use of choline to prevent thrombosis associated with total parenteral nutrition” (priority 2005, published 2007)", "key": {"[1]": {"procedure": "Prior to use, the appropriate amount of choline solution is transferred from the sterile vial and is added to the nutrient solution which typically is contained in a TPN bag."}, "[2]": {"tested_on": "plasma levels of homocysteine", "procedure": "Two female normal volunteers were infused with C-13-labeled choline and plasma levels of homocysteine were determined before and after infusion."}}, "note": "Like-named read-outs stand apart in the source and are kept apart here.", "data": [{"molecule": "C[N+](C)(C)CCO.[Cl-]", "note": "[Choline chloride, choline chloride]", "values": [{"measurement": "effects on the TPN solution turbidity, pH, or amino acid concentrations", "setting": "[1]; choline chloride added to TPN nutrient solutions", "result": "no adverse affects"}, {"measurement": "stable in various TPN nutrient solutions", "setting": "[1]; various TPN nutrient solutions", "result": "at least 30 days"}]}, {"molecule": "C-13-labeled choline", "values": [{"measurement": "Plasma concentration of homocysteine after infusion", "setting": "[2]; first normal volunteer, 6.62 umol/L before infusion", "result": 5.14, "unit": "µmol/L"}, {"measurement": "Plasma concentration of homocysteine after infusion", "setting": "[2]; second normal volunteer, 7.47 umol/L before infusion", "result": 6.64, "unit": "µmol/L"}]}]}
